Measured values published in the supplement of paper PMC11451515.

Tested on: P12-Ichikawa
Experiment: cell viability relative to DMSO control; higher = less cytotoxic
Details: 48 h
Procedure, shortened: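 Library compounds in DMSO were pin-dosed into 1536-well plates (5 μl) holding NOMO1 or SEM (500 cells/well) or P12-Ichikawa (1000 cells/well) leukemia cells, across an 11-point threefold series of 47 μM to 0.79 nM. Each cell line had been adapted for at least four passages in each medium. CellTiter-Glo One luminescence was read after 48 h at 37°C. Viability is the per-plate percentage relative to DMSO wells, with cell-free wells as background.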

[1] = HPLM + 10% dialyzed FBS, 0.000781 µM
[2] = HPLM + 10% dialyzed FBS, 0.00234 µM
[3] = HPLM + 10% dialyzed FBS, 0.00702 µM
[4] = HPLM + 10% dialyzed FBS, 0.0211 µM
[5] = HPLM + 10% dialyzed FBS, 0.0632 µM
[6] = HPLM + 10% dialyzed FBS, 0.19 µM
[7] = HPLM + 10% dialyzed FBS, 0.569 µM
[8] = HPLM + 10% dialyzed FBS, 1.71 µM
[9] = HPLM + 10% dialyzed FBS, 5.12 µM
[10] = HPLM + 10% dialyzed FBS, 15.4 µM
[11] = HPLM + 10% dialyzed FBS, 46.1 µM
[12] = RPMI 5 mM glucose + 10% FBS, 0.000781 µM
[13] = RPMI 5 mM glucose + 10% FBS, 0.00234 µM
[14] = RPMI 5 mM glucose + 10% FBS, 0.00702 µM
[15] = RPMI 5 mM glucose + 10% FBS, 0.0211 µM
[16] = RPMI 5 mM glucose + 10% FBS, 0.0632 µM
[17] = RPMI 5 mM glucose + 10% FBS, 0.19 µM
[18] = RPMI 5 mM glucose + 10% FBS, 0.569 µM
[19] = RPMI 5 mM glucose + 10% FBS, 1.71 µM
[20] = RPMI 5 mM glucose + 10% FBS, 5.12 µM
[21] = RPMI 5 mM glucose + 10% FBS, 15.4 µM
[22] = RPMI 5 mM glucose + 10% FBS, 46.1 µM
[23] = RPMI 5 mM glucose + 10% dialyzed FBS, 0.000781 µM
[24] = RPMI 5 mM glucose + 10% dialyzed FBS, 0.00234 µM
[25] = RPMI 5 mM glucose + 10% dialyzed FBS, 0.00702 µM
[26] = RPMI 5 mM glucose + 10% dialyzed FBS, 0.0211 µM
[27] = RPMI 5 mM glucose + 10% dialyzed FBS, 0.0632 µM
[28] = RPMI 5 mM glucose + 10% dialyzed FBS, 0.19 µM
[29] = RPMI 5 mM glucose + 10% dialyzed FBS, 0.569 µM
[30] = RPMI 5 mM glucose + 10% dialyzed FBS, 1.71 µM
[31] = RPMI 5 mM glucose + 10% dialyzed FBS, 5.12 µM
[32] = RPMI 5 mM glucose + 10% dialyzed FBS, 15.4 µM
[33] = RPMI 5 mM glucose + 10% dialyzed FBS, 46.1 µM

Compound | cell viability [1] [%] | cell viability [2] [%] | cell viability [3] [%] | cell viability [4] [%] | cell viability [5] [%] | cell viability [6] [%] | cell viability [7] [%] | cell viability [8] [%] | cell viability [9] [%] | cell viability [10] [%] | cell viability [11] [%] | cell viability [12] [%] | cell viability [13] [%] | cell viability [14] [%] | cell viability [15] [%] | cell viability [16] [%] | cell viability [17] [%] | cell viability [18] [%] | cell viability [19] [%] | cell viability [20] [%] | cell viability [21] [%] | cell viability [22] [%] | cell viability [23] [%] | cell viability [24] [%] | cell viability [25] [%] | cell viability [26] [%] | cell viability [27] [%] | cell viability [28] [%] | cell viability [29] [%] | cell viability [30] [%] | cell viability [31] [%] | cell viability [32] [%] | cell viability [33] [%]
CC(C)(C)c1cc(C=C(C#N)C#N)cc(Br)c1O | 96.9 | 116 | 74.7 | 114 | 122 | 122 | 123 | 120 | 121 | 116 | 104 | 101 | 110 | 67.7 | 117 | 115 | 123 | 124 | 113 | 123 | 121 | 100 | 106 | 114 | 79.7 | 116 | 126 | 132 | 117 | 132 | 130 | 113 | 110
Cn1cc(-c2ccc3nnc(C(F)(F)c4ccc5ncccc5c4)n3n2)cn1 | 116 | 117 | 117 | 116 | 113 | 115 | 109 | 108 | 101 | 95.8 | 82.9 | 114 | 117 | 117 | 124 | 109 | 113 | 113 | 106 | 107 | 101 | 81.7 | 119 | 112 | 120 | 118 | 113 | 119 | 118 | 112 | 101 | 102 | 85.6
CNC1[C@@H](O)C(O[C@@H]2C(O)C(O[C@H]3O[C@H]([C@@H](C)NC)CC[C@H]3N)[C@@H](N)C[C@H]2N)OC[C@]1(C)O (stereo partly specified) | 104 | 98.3 | 102 | 99.6 | 96.5 | 102 | 102 | 98.6 | 89.6 | 90.8 | 85.4 | 92.8 | 88.9 | 97.7 | 91.8 | 93 | 102 | 95.2 | 97.1 | 87.9 | 82.4 | 92.2 | 92.7 | 89.9 | 90 | 93 | 97.8 | 92.2 | 94.1 | 92.3 | 89.4 | 82.7 | 88.4
CC(=O)Nc1ccc([C@H](C)C(=O)Nc2ncc(C(C)C)s2)cc1 | 97.9 | 101 | 94.5 | 98.4 | 100 | 92.1 | 96.7 | 94.4 | 89.9 | 24.6 | 5.24 | 95.6 | 96.9 | 101 | 95.1 | 93.3 | 93.8 | 97.6 | 107 | 101 | 26 | 6.22 | 99.3 | 89.5 | 97.2 | 99.5 | 110 | 101 | 99.4 | 99.7 | 83.7 | 22.8 | 5.31
OCc1ccc(-c2nn(Cc3ccccc3)c3ccccc23)o1 | 118 | 109 | 103 | 107 | 113 | 108 | 104 | 93.8 | 96.5 | 105 | 73.7 | 117 | 119 | 128 | 126 | 113 | 115 | 117 | 104 | 116 | 113 | 60.9 | 109 | 110 | 108 | 112 | 100 | 108 | 113 | 103 | 102 | 98.9 | 49.5
OC[C@H](Cc1ccccc1)Nc1nc(Oc2ccc3c(c2)CCC3)nc2c1ncn2Cc1ccc(-c2ccccc2)cc1 | 93 | 94.1 | 98.7 | 102 | 96.4 | 99.1 | 105 | 94.3 | 95.4 | 82.7 | 79.2 | 90.8 | 93.3 | 89 | 90.5 | 94.7 | 89.5 | 91 | 97.3 | 90.1 | 86 | 75.1 | 79.6 | 88.4 | 90.9 | 99 | 99.8 | 89.3 | 90.8 | 87.7 | 88.9 | 72.4 | 68.4
CO[C@H]1C[C@@H]2CC[C@@H](C)[C@@](O)(O2)C(=O)C(=O)N2CCCC[C@H]2C(=O)O[C@H]([C@H](C)C[C@@H]2CC[C@@H](OC(=O)C(C)(CO)CO)[C@H](OC)C2)CC(=O)[C@H](C)/C=C(\C)[C@@H](O)[C@@H](OC)C(=O)[C@H](C)C[C@H](C)/C=C/C=C/C=C/1C | 110 | 117 | 113 | 106 | 104 | 107 | 100 | 96 | 87.2 | 83.4 | 77.9 | 92.8 | 111 | 97.6 | 97.8 | 94.1 | 90 | 87.6 | 84.4 | 65.8 | 63.3 | 50.1 | 94.3 | 110 | 110 | 92 | 92.8 | 96.7 | 85 | 89.8 | 78.2 | 66.5 | 52.5
C[C@@H](O)[C@@H]1[C@H]2[C@@H](C)\C(=C(/N2C1=O)C(=O)OCOC(=O)C(C)(C)C)SC3CN(C3)/C4=N/CCS4 | 95.2 | 107 | 110 | 111 | 112 | 108 | 111 | 112 | 112 | 116 | 109 | 78.9 | 102 | 108 | 100 | 109 | 104 | 107 | 111 | 107 | 111 | 103 | 97.3 | 106 | 109 | 118 | 107 | 108 | 109 | 102 | 111 | 111 | 111
CN(C)CCc1c[nH]c2ccc(C[C@H]3COC(=O)N3)cc12 | 98.4 | 109 | 109 | 115 | 105 | 105 | 116 | 112 | 88.7 | 13.7 | 9.01 | 105 | 101 | 112 | 104 | 111 | 117 | 116 | 102 | 84.1 | 36.2 | 6.37 | 108 | 100 | 105 | 111 | 106 | 111 | 104 | 112 | 80.2 | 38.2 | 7.95
CC(=O)N1CCN(c2ccc(OC[C@H]3CO[C@](Cn4ccnc4)(c4ccc(Cl)cc4Cl)O3)cc2)CC1 | 118 | 120 | 118 | 112 | 108 | 121 | 114 | 105 | 104 | 94 | 63.2 | – | – | – | – | – | – | – | – | – | – | – | 109 | 107 | 110 | 107 | 113 | 106 | 101 | 101 | 94 | 96.7 | 68.2
COc1cc(O)c2c(c1)C1OC1C[C@H](O)[C@H](O)C(=O)/C=C\C[C@H](C)OC2=O (stereo partly specified) | 99.6 | 112 | 114 | 110 | 110 | 120 | 112 | 112 | 112 | 81.5 | 11.3 | 113 | 112 | 118 | 110 | 115 | 114 | 116 | 125 | 117 | 80.5 | 13.5 | 96.5 | 117 | 116 | 118 | 114 | 135 | 124 | 123 | 132 | 85.1 | 14.3
O=C(NC[C@H](O)CN1CCc2ccccc2C1)c1cc(NC2COC2)ncn1 | 84.8 | 87.8 | 87.5 | 86.8 | 85.4 | 86.1 | 83.6 | 78.9 | 80 | 80.6 | 71.1 | 74 | 83.2 | 80 | 85.9 | 86.2 | 84.8 | 77.3 | 74 | 70.4 | 76.4 | 59.3 | 80.6 | 88.6 | 84.6 | 87.9 | 88.1 | 86.9 | 77.6 | 79.1 | 78.7 | 72 | 66.3
CC1(C)OC2CC3C4CC(F)C/5=C/C(=O)/C=C\C5(C)C4C(O)CC3(C)[C@@]2(O1)C(=O)CO (stereo partly specified) | 110 | 117 | 114 | 115 | 107 | 94.9 | 78 | 73.8 | 71.6 | 72.5 | 70.7 | – | – | – | – | – | – | – | – | – | – | – | 115 | 119 | 117 | 102 | 94.4 | 76.6 | 61.4 | 52.1 | 50.8 | 45.9 | 49
CC(=O)C\1=C(/C)C2=CN=C(NC3=CC=C(C=N3)N4CCNCC4)N=C2N(C5CCCC5)C1=O | 111 | 121 | 119 | 114 | 114 | 110 | 107 | 93.1 | 88.5 | 77 | 28.9 | 119 | 116 | 124 | 113 | 113 | 119 | 98.5 | 78.6 | 72.6 | 66.6 | 61 | 122 | 117 | 127 | 117 | 118 | 114 | 104 | 83.4 | 76.9 | 73 | 45.6
C[C@@H]1CN[C@H]2[C@@H](C)[C@@]\3(CC[C@H]\4[C@@H]5C/C=C6/C[C@@H](O)CC[C@]6(C)[C@H]5CC4=C3C)O[C@@H]2C1 | – | – | – | – | – | – | – | – | – | – | – | – | – | – | – | – | – | – | – | – | – | – | 119 | 125 | 123 | 121 | 124 | 115 | 114 | 114 | 109 | 101 | 93.1
